The record followed here is patent publication US10212934B2, “Pesticidal compositions” (BASF AGRO B.V., priority 2014, dated 2019).

Like-named read-outs stand apart in the source and are kept apart here.

Assay type in all cases: cell-based
Holding throughout (details): 7 days after inoculation

In one assay the test system is Phytophthora infestans.
The test system of another assay is Septoria tritici. In words: M4 microtiter test, leaf blotch on wheat caused by Septoria tritici (Septtr).
The test system of the next assay is Pyricularia oryzae.
The subject of another assay is Botrytis cinerea. The assay is described as follows: M2 microtiterplate test, grey mold Botrytis cinerea (Botrci).
The test system of a further assay is Alternaria solani. The assay is described as follows: M5 microtiter test, early blight caused by Alternaria solani (Alteso).
Another assay deals with Leptosphaeria nodorum. In words: M6 microtiter test, wheat leaf spots caused by Leptosphaeria nodorum (Leptno).

In the case of `CNC(=O)Oc1cc(C)c(SC)c(C)c1` [Methiocarb (II-4), 4-methylthio-3,5-xylyl methylcarbamate], the results for the Observed efficacy in the assay with Phytophthora infestans (63 ppm), in the assay on Septoria tritici (0.063 ppm) and with Pyricularia oryzae (63 ppm) were 51%, 6% and 36%, respectively.

`CC(O)(Cn1cncn1)c1ccc(Oc2ccc(Cl)cc2)cc1C(F)(F)F` (centres unmarked) [I-3, 2-[4-(4-chlorophenoxy)-2-(trifluoromethyl)phenyl]-1-(1,2,4-triazol-1-yl)propan-2-ol]: the Observed efficacy in the assay on Phytophthora infestans (0.063 ppm) turned out to be 12%; in the assay with Botrytis cinerea (0.063 ppm), 42%; in the assay with Alternaria solani (0.001 ppm), 9%; in the assay with Leptosphaeria nodorum (0.016 ppm), 35%; with Septoria tritici (0.00025 ppm), 28%; in the assay on Pyricularia oryzae (0.25 ppm), 10%.

`CC(C)(C)C(O)C(Oc1ccc(Cl)cc1)n1cncn1` (centres unmarked) [Triadimenol (II-2), (1 RS,2 RS;1 RS,2 SR)-1-(4-chlorophenoxy)-3,3-dimethyl-1-(1H-1,2,4-triazol-1-yl)butan-2-ol] registered an Observed efficacy in the assay with Botrytis cinerea (4 ppm) of 39%.

As for `O=c1[c-](-c2cccc(C(F)(F)F)c2)c(=O)[n+](Cc2cncnc2)c2ccccn12` [Triflumezopyrim (II-7), 3,4-dihydro-2,4-dioxo-1-(pyrimidin-5-ylmethyl)-3-(α,α,α-trifluoro-m-tolyl)-2H-pyrido[1,2-a]pyrimidin-1-ium-3-ide], the Observed efficacy in the assay with Alternaria solani (0.25 ppm) turned out to be 36%.

With `Cc1cc(C(F)(F)F)nn1CC(=O)N1CCC(c2nc(C3=NOC(c4c(F)cccc4F)C3)cs2)CC1` (racemic) [Oxathiapiprolin (II-1), 1-(4-{4-[(5 RS)-5-(2,6-difluorophenyl)-4,5-dihydro-1,2-oxazol-3-yl]-1,3-thiazol-2-yl}-1-piperidyl)-2-[5-methyl-3-(trifluoromethyl)-1H-pyrazol-1-yl]ethanone], the Observed efficacy in the assay on Botrytis cinerea (16 ppm) is 4%; in the assay with Botrytis cinerea (63 ppm) it was 23%.

In the assay with Leptosphaeria nodorum (16 ppm (commercial finished formulation diluted with water)), `CC(c1ccc(C(F)(F)F)nc1)S(C)(=O)=NC#N` (centres unmarked) [Sulfoxaflor (II-3), [methyl(oxo){1-[6-(trifluoromethyl)-3-pyridyl]ethyl}-Λ^6-sulfanylidene]cyanamide] had an Observed efficacy of 0%.
